Here are results for 1 compound from article PMC10979105, “A simple method to resolve rate constants when the binding mechanism obeys induced fit or conformational selection” (The Journal of Biological Chemistry, 2024).

“And” between values parts separate entries of the source, which are not always exact repeats. Equal values may be shown once.

Experiment [1] relates to prethrombin-2 (S195A mutant). As to the kind of experiment: Rapid kinetics (stopped-flow) of FPR binding to prethrombin-2. From the text:
Rapid kinetics of FPR binding to thrombin resolved the two independent relaxations (Equations 3 and 4) for CS and the four independent rate constants. On the other hand, similar measurements for prethrombin-2 produced only a saturable relaxation increasing with [FPR] (Fig. 2A) ([30]), thereby preventing resolution of the four independent constants and a full comparison with the mature protease thrombin. This situation provides an ideal test for application of the method based on Equation 11. The saturable relaxation for FPR binding to prethrombin-2 increases from α(0) = […] to α(∞) = 150 ± 20 s^−1, with a midpoint xm = 200 ± 20 μM and α(xm) = 88 ± 9 s^−1 (Fig. 2A and Table 2). […] Interpretation of the saturable relaxation in terms of CS gives k12 = 150 ± 20 s^−1 and koff = 25 ± 3 s^−1. Application of Equation 11 then yields kon = 4.0 ± 0.4 μM^−1s^−1 and Equation 9 gives αˆ(0)=k12+k21 = 890 ± 90 s^−1, so k21 = 740 ± 70 s^−1 (Table 2). The value of kon is almost identical to that reported for the mature protease thrombin (2.6 ± 0.3 μM^−1s^−1), whilst the value of koff is 40-fold higher (25 ± 3 s^−1 versus 0.60 ± 0.06 s^−1) ([30]). […] The conclusion is independent of whether FPR binding to prethrombin-2 is interpreted according to CS or IF. Application of the conversion formulas in Table 1 gives rate constants for IF equal to kon = 4.0 ± 0.4 μM^−1s^−1, koff = 765 ± 80 s^−1, k23 = 120 ± 10 s^−1, and k32 = 29 ± 3 s^−1 (Table 2), thereby making the contribution of a decreased rate of dissociation in the protease even more evident. Importantly, the two sets of rate constants for IF and CS yield the same value for Kd,app (Table 2), as shown by application of Equation 10 and the conversion formulas in Table 1. The importance of koff in setting the difference between ligand binding to prethrombin-2 and thrombin was anticipated by previous studies ([30]). The method based on Equation 11 provides a quantitative estimate of the difference and adds rigor to previous conclusions.
(§1) Figure 2 Binding of FPR to thrombin zymogens.A, rapid kinetics of FPR binding to the zymogens prothrombin (closed circles) and prethrombin-2 (open circles), showing a saturable relaxation associated with the interaction. The lack of information on a fast relaxation increasing linearly with [FPR] prevented assignment of the value of kon in the original report ([30]). Curves were drawn with the empirical expression [α(0)xm+α(∞)x]/(xm+x) , where x =[FPR], with best-fit parameters listed in Table 2. B, fractional saturation of FPR binding to prothrombin (closed circles) and prethrombin-2 (open circles). These values, together with the parameters derived from the plots in panel A, allow for derivation of the value of kon from Equation 11. […] Data in panels A and B were taken from ([30]) and were obtained under the following experimental conditions: 400 mM ChCl, 50 mM Tris, 0.1% PEG8000, pH 8, at 15 °C. CS, conformational selection; FPR, H-D-Phe-Pro-Arg-p-nitroanilide; IF, induced fit.
The data analyzed in this study, that is, FPR binding to prethrombin-2, prothrombin, and thrombin (Figs. 2, A and B and 3, A and B) were taken from ([30]) without modification. The methodology used to produce the recombinant proteins, measure FPR binding by stopped-flow or equilibrium titrations is reported in ([30]) and references therein. Values of the slow relaxation α(x) (Fig. 1, A and B, 2A and 3A) are measured by stopped-slow as a function of the ligand concentration and derived from fit of the time evolution of the interaction according to the expression ([1])(12) A(x,t)=A0(x)+A1(x)exp{−α(x)t}

Experiment [2] deals with prothrombin. As to the kind of experiment: Rapid kinetics (stopped-flow) of FPR binding to prothrombin. Particulars: model independent, fit of data from ref 30.
Description: as §1
The method also offers a simple test of whether the experimental data under consideration require more complex binding mechanisms than IF or CS. This is an important property of the method that may prompt reconsideration of current interpretations of ligand binding in terms of IF or CS made from analysis of a single saturable relaxation. The denominator of Equation 11 introduces a constraint on the relative values of Kd,app and xm . If the resulting term is negative, the model independent parameters (Equations (5), (6), (7) and 10) of the slow relaxation cannot be interpreted in terms of IF or CS. The data describing the kinetic relaxation (Fig. 1, A and B) and equilibrium binding (Fig. 1C) become incompatible when interpreted with Equations 9 and 10 and more elaborate mechanisms should be considered. We illustrate this point for the case of FPR binding to prothrombin, which is the physiological zymogen precursor of thrombin ([23]). Prothrombin is composed of a protease domain identical to prethrombin-2 linked to additional kringles and Gla domains that are shed during activation to thrombin by prothrombinase in the penultimate step of the coagulation cascade ([23], [31]). Because prothrombin and prethrombin-2 share the same protease domain, binding of FPR may be expected to take place with a similar affinity and mechanism in the two zymogens. […]
The data analyzed in this study, that is, FPR binding to prethrombin-2, prothrombin, and thrombin (Figs. 2, A and B and 3, A and B) were taken from ([30]) without modification. […] Values of the slow relaxation α(x) (Fig. 1, A and B, 2A and 3A) are measured by stopped-slow as a function of the ligand concentration and derived from fit of the time evolution of the interaction according to the expression ([1])(12) A(x,t)=A0(x)+A1(x)exp{−α(x)t}

For experiment [3], the system named is thrombin mutant S195A. As to the kind of experiment: Equilibrium titration of intrinsic fluorescence, FPR binding to thrombin. Conditions: thrombin versus prethrombin-2. From the text: Figure 3 Binding of FPR to thrombin.A, rapid kinetics of FPR binding to thrombin showing the fast ( α1 ) and slow ( α2 ) relaxations defining a mechanism of binding consistent with IF or CS (see also Fig. 1A). Continuous lines depict Equations 3 and 4 in the original report ([30]) with best-fit parameter values of Equation 1 or Equation 2 listed in Table 2. […] The discontinuous line for the slow relaxation was drawn with the empirical expression [α(0)xm+α(∞)x]/(xm+x) , where x = [FPR], with best-fit parameters listed in Table 2. The discontinuous line for the fast relaxation was drawn using Equation 3 with the four independent rate constants obtained from application of Equation 11 (Table 2). […] The four independent rate constants derived from application of the method compare well with the values determined from application of Equations 3 and 4 in the original report ([30]). […]
The value of Kd,app is obtained from titration of intrinsic fluorescence at equilibrium (Figs. 2B and 3B) according to the expression(13) F(x)=F0Kd,app+F1x/Kd,app+x=F0(1−ϑ)+F1ϑ where ϑ=x/(Kd,app+x) is the fractional saturation (Figs. 1C, 2B and 3B). […] At each value of the ligand concentration, the change in absorbance from the initial ( t=0 ) to final ( t=∞ ) state gives the equilibrium reading equivalent to F(x) in Equation 13.

Experiment [4] has as its system thrombin mutant S195A. Also noted: method as in PMID 29511224. Particulars: cited from earlier work.
The target of experiment [5] is thrombin mutant S195A. More on the design: method as in PMID 29511224. Particulars: fluorescence titration at equilibrium; 400 mM ChCl, 50 mM Tris, 0.1% PEG8000, pH 8, 15 °C; read-out: Kd,app; cited from earlier work.
Experiment [6] has as its target prethrombin-2 (S195A mutant). More on the design: method as in PMID 29511224. Conditions: fluorescence titration at equilibrium; 400 mM ChCl, 50 mM Tris, 0.1% PEG8000, pH 8, 15 °C; read-out: Kd,app; cited from earlier work.
The target in experiment [7] is prothrombin. More on the design: method as in PMID 29511224. Conditions: fluorescence titration at equilibrium; 400 mM ChCl, 50 mM Tris, 0.1% PEG8000, pH 8, 15 °C; read-out: Kd,app; cited from earlier work.
The mark [8] stands for this setting: IF, conversion formulas of Table 1.
Setting [9] is: model independent, pH 8, 15 °C, fit of data from ref 30.
Setting [10] is: CS, from analysis of two relaxations.

In experiment [1] (setting [8]), `N=C(N)NCCC[C@H](NC(=O)[C@@H]1CCCN1C(=O)[C@H](N)Cc1ccccc1)C(=O)Nc1ccc([N+](=O)[O-])cc1` [FPR, H-D-Phe-Pro-Arg-p-nitroanilide] came in with a koffIF of 765 ± 80 s⁻¹ and a konIF of 4e+06 ± 400000 M⁻¹ s⁻¹. Moreover, the kon (usually a measure of how fast the partners come together) in experiment [1] (model independent, derived from Equation 11) was found to be 4e+06 ± 400000 M⁻¹ s⁻¹. Further, the “α(0), lower asymptote of slow relaxation” value in experiment [1] (model independent, 400 mM ChCl, 50 mM Tris, 0.1% PEG8000, pH 8, 15 °C, fit of data from ref 30) is 25 ± 0.3 s⁻¹ and 25 ± 2 s⁻¹. In addition, in experiment [1] (setting [9]), the “xm, midpoint of the slow relaxation” value turned out to be 200 ± 20 µM; the “α(xm), slow relaxation at midpoint” value was found to be 88 ± 9 s⁻¹; the “α(∞), asymptote of slow relaxation” value is 150 ± 20 s⁻¹ and 150 ± 10 s⁻¹. In the experiment on prothrombin [2] (400 mM ChCl, 50 mM Tris, 0.1% PEG8000, pH 8, 15 °C), the “α(0), asymptote of slow relaxation” value was 45 ± 4 s⁻¹ and 45 ± 5 s⁻¹. Further, in the experiment on prothrombin [2] (pH 8, 15 °C), the “xm, midpoint of the slow relaxation” value was found to be 54 ± 5 µM; the “α(xm), slow relaxation at midpoint” value was found to be 26 ± 3 s⁻¹; the “α(∞), asymptote of slow relaxation” value was 6.9 ± 0.7 s⁻¹. Further, the “difference in equilibrium binding affinity between prethrombin-2 and thrombin” value in the experiment on thrombin mutant S195A [3] is listed as more than 100 fold. In the experiment on thrombin mutant S195A [4] (setting [10]), the k12 is 16 ± 1 s⁻¹, the k21 was 3.8 ± 0.8 s⁻¹, the koffCS was 0.6 ± 0.1 s⁻¹ and the konCS was 2.6e+06 ± 300000 M⁻¹ s⁻¹. Further, in the experiment on thrombin mutant S195A [4] (IF), the k23 is given as 13 ± 1 (13 ± 1) s^−1, the k32 is 2.6 ± 0.3 s⁻¹, the koffIF was 4.4 ± 0.4 s⁻¹ and the konIF is 2.6e+06 ± 300000 M⁻¹ s⁻¹. The Kd at thrombin mutant S195A [5] was 0.28 ± 0.02 µM. Besides, the Kd in experiment [6] is 37 ± 4 µM. The Kd on prothrombin [7] was 195 ± 20 µM.
